From US20130303486A1, “Compositions Comprising Zoledronic Acid or Related Compounds for Relieving Pain Associated with Arthritis” (priority 2012, published 2013)
Like-named read-outs stand apart in the source and are kept apart here.

Columns and labels:
[1] = tested on: complex regional pain syndrome (CRPS), fracture hindpaw; test: rat tibia fracture model of complex regional pain syndrome (CRPS): von Frey, weight bearing, edema, warmth; type: in vivo; settings: oral 18 mg/m^2/day (3 mg/kg/day) for 28 days
Description: The effect of orally administered zoledronic acid was examined in the rat tibia fracture model of complex regional pain syndrome (CRPS). CRPS was induced in the rats by fracturing the right distal tibias of the animals and casting the fractured hindpaws for 4 weeks, as described in Guo T Z et al. (Pain. 2004; 108:95-107).
Animals were orally administered either vehicle (control) or zoledronic acid, in a dosage of 18 mg/m^2/day (3 mg/kg/day) for 28 days, starting on the day of fracture and casting. Drug was dissolved in distilled water and administered by gavage. Animals were fasted for 4 hours before and 2 hours after dosing. At the end of the 28-day period, casts were removed, and on the following day, the rats were tested for hindpaw pain, edema, and warmth.
Pain was assessed by measuring hyperalgesia, and weight bearing. […]
An incapacitance device (IITC Inc. Life Science, Woodland, Calif., USA) was used to measure hindpaw weight bearing, a postural effect of pain. […] Eight readings (excluding the highest and lowest ones) were averaged to calculate the bilateral hindpaw weight-bearing values. Weight bearing data were analyzed as the ratio between right (fracture) and left hindpaw weight bearing values ((2R/(R+L))×100%). […]
The temperature of the hindpaw was measured using a fine wire thermocouple (Omega, Stanford, Conn., USA) applied to the paw skin. […]

[2] = tested on: inflammatory pain (mechanical hyperalgesia), CFA-injected hind paw; type: in vivo, Sprague-Dawley rats
Description: The effect of orally administered zoledronic acid on inflammatory pain was examined using the rat complete Freund's adjuvant (CFA) model. Inflammatory pain was induced by injection of 100% CFA in a 75 μL volume into the left hind paws of Sprague-Dawley rats on day 0, followed by assessments on days 1-3. Animals were orally administered vehicle (control), zoledronic acid 18 mg/m^2 (or 3 mg/kg), zoledronic acid 120 mg/m^2 (or 20 mg/kg), or zoledronic acid 900 mg/m^2 (or 150 mg/kg) daily on days 1-3. Drug was dissolved in distilled water and prepared fresh daily. Animals were fasted prior to dosing. Under current FDA guidelines for extrapolating starting dosages from animals to humans, dosages expressed in mg/m^2 are considered equivalent between mammalian species. Thus, for example, 18 mg/m^2 in a rat is considered equivalent to 18 mg/m^2 in a human being, while 3 mg/kg in a rat may not be equivalent to 3 mg/kg in a human being.
Values for inflammatory pain (mechanical hyperalgesia) in the vehicle and drug-treated animals were obtained on day 0 prior to CFA injection, and at baseline and post-treatment on days 1-3. Pain was assessed using a digital Randall-Selitto device (dRS; IITC Life Sciences, Woodland Hills, Calif.). Animals were placed in a restraint sling that suspended the animal, leaving the hind limbs available for testing. Paw compression threshold was measured by applying increasing pressure to the plantar surface of the hind paw with a dome-shaped tip placed between the 3rd and 4th metatarsus. Pressure was applied gradually over approximately 10 seconds. Measurements were taken from the first observed nocifensive behavior of vocalization, struggle or withdrawal. A cut-off value of 300 g was used to prevent injury to the animal.
Reversal of inflammatory pain was calculated according to the formula:
% reversal=(Post-treatment−Post-CFA baseline)/(Pre-CFA baseline−Post-CFA baseline)×100.
The experiment was carried out using 9-10 animals per group.

O=P(O)(O)C(O)(Cn1ccnc1)P(=O)(O)O [zoledronic acid]
reversal of fracture induced pain (von Frey pain threshold) as compared to vehicle [1]: 77% | paw compression thresholds compared to vehicle ([2]; oral 18 mg/m^2, entire measurement period after 30 minutes from start of treatment): higher than for vehicle | paw compression thresholds compared to vehicle ([2]; oral 120 mg/m^2 (20 mg/kg) daily days 1-3, all time points): approximately equal or inferior to vehicle | toxicity ([2]; oral 900 mg/m^2 (150 mg/kg) daily days 1-3, all animals euthanized two days after cessation of dosing): significant toxicity | paw compression thresholds compared to vehicle ([2]; oral 900 mg/m^2, day three): greater than for vehicle | paw compression thresholds compared to vehicle ([2]; oral 900 mg/m^2, first two days of dosing): lower than vehicle
